According to patent publication US6855729B2, “Treatment of fibromyalgia and related fatigue syndromes using antagonists or partial agonists of 5HT1a receptors” (priority 2001, dated 2005):

How the values were obtained:
[1] = system: patients with fibromyalgia; assay: Open label treatment study in fibromyalgia / chronic fatigue syndrome; assay type: in vivo, human; conditions: 2.5 mg three times daily
Experimental: Five patients with fibromyalgia (ACR criteria) who also met criteria for chronic fatigue syndrome (CDC criteria) gave informed consent to take part in this open label treatment study. All were treated with pindolol 2.5 mg three times daily.

5HT1a receptor = target: T1, 5HT1a receptor (Homo sapiens, UniProt P08908); assay: Buspirone challenge, prolactin release; assay type: in vivo; conditions: buspirone 30 mg orally; for Prolactin AUC (mean±SD): blood 0-180 min
T1 construct: Buspirone (30 mg) or matching placebo was administered orally at 0900 h (Time 0); from tissue; host or cells: living human subjects (central receptors)
T1 sequence (P08908 1-422): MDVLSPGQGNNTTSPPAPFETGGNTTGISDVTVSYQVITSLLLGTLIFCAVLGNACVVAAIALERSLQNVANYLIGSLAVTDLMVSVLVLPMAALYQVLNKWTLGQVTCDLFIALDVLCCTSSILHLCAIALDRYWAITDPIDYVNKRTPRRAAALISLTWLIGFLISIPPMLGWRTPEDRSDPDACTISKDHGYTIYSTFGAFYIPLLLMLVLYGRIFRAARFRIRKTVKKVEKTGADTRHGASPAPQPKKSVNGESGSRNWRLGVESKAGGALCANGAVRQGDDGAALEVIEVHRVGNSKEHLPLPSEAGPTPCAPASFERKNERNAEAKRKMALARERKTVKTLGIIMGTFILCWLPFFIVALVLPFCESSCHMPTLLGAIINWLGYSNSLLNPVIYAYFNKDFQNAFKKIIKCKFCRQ
Experimental: A total of 12 subjects (9 female/3 male) and 12 healthy comparison subjects (9 female/3 male) gave fully informed consent to take part in the study. […] All patients fulfilled criteria for both fibromyalgia (ACR criteria) and chronic fatigue syndrome (CDC criteria). […] Buspirone (30 mg) or matching placebo was administered orally at 0900 h (Time 0). Blood was taken at 0, 30, 60, 90, 120 and 180 min.

Prolactin levels after challenge (5HT1a receptor; all subjects (patients and healthy)) | Prolactin AUC (mean±SD) (5HT1a receptor; healthy subjects) | Prolactin AUC (mean±SD) (5HT1a receptor; patients with fibromyalgia and chronic fatigue syndrome) | Compound | Time to significant improvement in symptoms ([1]; from commencing treatment) | Effect on symptoms, energy levels and general wellbeing ([1]; open label) | Patients showing a significant improvement in symptoms ([1]; open label, five patients with fibromyalgia and chronic fatigue syndrome)
 |  |  | CC(C)NCC(O)COc1cccc2[nH]ccc12 (racemic) [pindolol] | ≤ 10 days | reduction in all symptoms and an increase in energy levels and general wellbeing | Four of 5
rose in all subjects | 27±35 | 49±28 | O=C1CC2(CCCC2)CC(=O)N1CCCCN1CCN(c2ncccn2)CC1 [Buspirone] |  |  | 
